US20060014740A1 (priority 2003, published 2006)
Structures can show the parent of a compound that is named as a salt. Where two headings read alike, the source gives them in different places.

Assays:
[1] = test system: RH7777 rat hepatoma cells; test: SRB cytotoxicity assay, RH7777 control cell line; format: cell-based; details: control cell line, 96 h, read-out: IC50 RH7777
Method: (§1) For in vitro cytotoxicity screening, 1000 to 5000 cells were plated into each well of 96-well plates depending on growth rate, and exposed to different concentrations of a test compound for 96 h in three to five replicates. All the compounds were dissolved in dimethyl sulfoxide at 5 to 20 mM, and diluted to desired concentrations in complete culture medium. Cell numbers at the end of the drug treatment were measured by the SRB assay (Gududuru et al., “Synthesis and Biological Evaluation of Novel Cytotoxic Phospholipids for Prostate Cancer,” Bioorg. Med. Chem. Lett. 14:4919-4923 (2004); Rubinstein et at., “Comparison of in vitro Anticancer-Drug-Screening Data Generated with a Tetrazolium Assay Versus a Protein Assay Against a Diverse Panel of Human Tumor Cell Lines,” J. Naatl, Cancer Inst. 82:1113-1118 (1990), each of which is hereby incorporated by reference in its entirety). Briefly, the cells were fixed with 10% of trichloroacetic acid, stained with 0.4% SRB, and the absorbances at 540 nm was measured using a plate reader (DYNEX Technologies, Chantilly, Va.).
(§2) The antiproliferative activity of all the synthesized compounds was evaluated against five human prostate cancer cell lines and in RH7777 cells (negative control) using the sulforhodamine B (SRB) assay (see description in Example 5 above).
(§3) The chosen cell lines represent different basal levels of active AKT and LPL receptor expression (discussed later). Cells were exposed to a wide range of concentrations (0 to 100 μM) of the indicated compound for 96 h. Cell numbers at the end of treatment were measured using the sulforhodamine B (SRB) assay^5.
(§4) Cells were exposed to a wide range of concentrations (0 to 100 μM) of the particular compound for 96 h in 96 well plates. Cells were fixed with 10% trichloroacetic acid, washed five times with water. The plates were air dried overnight and fixed cells were stained with SRB solution. The cellular protein-bound SRB was measured at 540 nm using a plate reader. Cell numbers at the end of the treatment were measured.
as §4, with “96-well” for “96 well”, “calculated as a percentage of untreated control.” for “measured.”

[2] = test system: DU-145 human prostate cancer cells; test: SRB cytotoxicity assay, DU-145; format: cell-based; details: 96 h
Method: as §1, §2, §3, §4
as §4, with “96-well” for “96 well”, “calculated as a percentage of untreated control.” for “measured.”

[3] = test system: PC-3 human prostate cancer cells; test: SRB cytotoxicity assay, PC-3; format: cell-based; details: 96 h, read-out: IC50 PC-3
Method: as §1, §2, §3, §4
as §4, with “96-well” for “96 well”, “calculated as a percentage of untreated control.” for “measured.”

[4] = test system: LNCaP human prostate cancer cells; test: SRB cytotoxicity assay, LNCaP; format: cell-based; details: 96 h, read-out: IC50 LNCaP
Method: as §1, §2, §3, §4
as §4, with “96-well” for “96 well”, “calculated as a percentage of untreated control.” for “measured.”

[5] = test system: PPC-1 human prostate cancer cells; test: SRB cytotoxicity assay, PPC-1; format: cell-based; details: for IC50: Homo sapiens, PPC-1
Method: (§5) Dr. Mitchell Steiner at University of Tennessee Health Science Center, kindly provided PPG-1 and TSU-PrI cells.
as §1, §2, §3, §4
as §4, with “96-well” for “96 well”, “calculated as a percentage of untreated control.” for “measured.”

[6] = test system: TSU-Pr1 human prostate cancer cells; test: SRB cytotoxicity assay, TSU-Pr1; format: cell-based; details: 96 h, read-out: IC50 TSU-Pr1
Method: as §5, §1, §2, §3, §4
as §4, with “96-well” for “96 well”, “calculated as a percentage of untreated control.” for “measured.”

[7] = test system: human breast cancer cell line (MCF-7); test: SRB cytotoxicity assay, MCF-7; format: cell-based; details: Homo sapiens, MCF7; Table 8; breast cancer cell line; read-out: IC50 MCF-7
Method: as §1
(§6) In vitro cytotoxicity assay was performed by the same sulforhodamine B (SRB) assay (described above). The compounds shown in Table 8 below where tested for activity against the breast cancer and ovarian cancer cell lines.
as §3, §4

[8] = test system: CaOv-3 human ovarian cancer cell line; test: SRB cytotoxicity assay, CaOv-3; format: cell-based; details: Table 8
Method: as §1, §6

[9] = test system: OVCAR-3 human ovarian cancer cell line; test: SRB cytotoxicity assay, OVCAR-3; format: cell-based; details: Table 8
Method: as §1, §6

[10] = test system: SKOv-3 human ovarian cancer cell line; test: SRB cytotoxicity assay, SKOv-3; format: cell-based; details: Table 8
Method: as §1, §6

[11] = Rattus norvegicus, RH7777, Table 3
[12] = Homo sapiens, DU-145, read-out: IC50 DU-145, Table 3
[13] = Table 3, 96 h, read-out: IC50 PPC-1
[14] = Rattus norvegicus, RH7777, Table 4
[15] = Homo sapiens, DU-145, read-out: IC50 DU-145, Table 4
[16] = Table 4, 96 h, read-out: IC50 PPC-1

Row | melting point [°C] | SMILES | IC50 [1, 11] [µM] | IC50 [2, 12] [µM] | IC50 ([3]; Homo sapiens, Table 3) [µM] | IC50 ([4]; Homo sapiens, LNCaP, Table 3) [µM] | IC50 [5, 13] [µM] | IC50 ([6]; Homo sapiens, TSU-Pr1, Table 3) [µM] | IC50 [7] [µM] | IC50 [1, 14] [µM] | IC50 [2, 15] [µM] | IC50 ([3]; Homo sapiens, Table 4) [µM] | IC50 ([4]; Homo sapiens, LNCaP, Table 4) [µM] | IC50 [5, 16] [µM] | IC50 ([6]; Homo sapiens, TSU-Pr1, Table 4) [µM] | further results
1 | 75 | CCCCCCCCCCCCCCCCCCNC(=O)[C@@H]1CSC(c2ccc(N(C)C)cc2)N1 (mixture of isomers) [Compound 13, (2RS, 4R)-2-(4-Dimethylamino-phenyl)-thiazolidine-4-carboxylic acid octadecylamide] | > 20 | 5.3 | 6 | 1.6 | 1.1 | 3 | 13.5 | – | – | – | – | – | – | –
2 | 81 | CCCCCCCCCCCCCCCCCCNC(=O)[C@@H]1CSC(c2ccc(Br)cc2)N1 (mixture of isomers) [Compound 20, (2RS, 4R)-2-(4-Bromo-phenyl)-thiazolidine-4-carboxylic acid octadecylamide] | – | – | – | – | – | – | 16.6 | > 20 | 13.8 | 17.3 | 5.1 | 3.7 | 18.3 | –
3 | 120 | CCCCCCCCCCCCCCCCCCNC(=O)[C@@H]1CSC(c2ccc(C)cc2)N1 (mixture of isomers) [Compound 26, (2RS, 4R)-2 p-Tolyl-thiazolidine-4-carboxylic acid octadecylamide] | – | – | – | – | – | – | 10.3 | > 20 | 10.5 | 12.8 | 1.9 | 1.9 | 8 | –
4 | 100 | CCCCCCCCCCCCCCCCCCNC(=O)[C@@H]1CSC(c2ccc(F)c(Br)c2)N1 (mixture of isomers) [Compound 25, (2RS, 4R)-2-(3-Bromo-4-fluoro-phenyl)-thiazolidine-4-carboxylic acid octadecylamide] | – | – | – | – | – | – | 15.3 | ~20 | 11.3 | 13.5 | 3 | 4.7 | 14 | –
5 | 115 | CCCCCCCCCCCCCCCCCCNC(=O)[C@@H]1CSC(c2ccc([N+](=O)[O-])cc2)N1 (mixture of isomers) [Compound 21, (2RS, 4R)-2-(4-Nitro-phenyl)-thiazolidine-4-carboxylic acid octadecylamide] | – | – | – | – | – | – | 16.3 | ~20 | 15.3 | ~20 | 8.4 | 15.3 | 15.9 | –
6 | 94 | CCCCCCCCCCCCCCCCCCNC(=O)[C@@H]1CSC(c2cccnc2)N1 (mixture of isomers) [Compound 11, (2RS, 4R)-2-Pyridin-3-yl-thiazolidine-4-carboxylic acid octadecylamide] | 10.5 | 7.5 | 9.2 | 3.6 | 2.9 | 7.8 | 9.3 | – | – | – | – | – | – | –
7 | 125 | CCCCCCCCCCCCCCCCCCNC(=O)[C@@H]1CSC(c2c[nH]c3ccccc23)N1 (mixture of isomers) [Compound 10, (2RS, 4R)-2-(1H-Indol-3yl)-thiazolidine-4-carboxylic acid octadecylamide] | > 20 | 8.9 | 11.5 | 2.1 | 1.3 | 4.4 | – | – | – | – | – | – | – | –

The next lines start with the compound.

Row | SMILES | melting point [°C] | IC50 [1, 11] [µM] | IC50 [2, 12] [µM] | IC50 ([3]; Homo sapiens, Table 3) [µM] | IC50 ([4]; Homo sapiens, LNCaP, Table 3) [µM] | IC50 [5, 13] [µM] | IC50 ([6]; Homo sapiens, TSU-Pr1, Table 3) [µM] | IC50 [7] [µM] | IC50 [1, 14] [µM] | IC50 [2, 15] [µM] | IC50 ([3]; Homo sapiens, Table 4) [µM] | IC50 ([4]; Homo sapiens, LNCaP, Table 4) [µM] | IC50 [5, 16] [µM] | IC50 ([6]; Homo sapiens, TSU-Pr1, Table 4) [µM] | further results
8 | CCCCCCCCCCCCCCCCCCNC(=O)[C@@H]1CSC(c2ccc(OC)c(OC)c2)N1 (mixture of isomers) [Compound 16-HCI, (2RS, 4R)-2-(3,4-Dimethoxy-phenyl)-thiazolidine-4-carboxylic add octadecylamide Hydrochloride] | – | – | – | – | – | – | – | – | – | – | – | – | – | – | IC50 ([1]; Table 3): 10.3 µM; IC50 ([2]; read-out: IC50 DU-145, Table 3): 4.5 µM; IC50 ([3]; Table 3): 5.2 µM; IC50 ([4]; Table 3): 0.85 µM; IC50 ([6]; Table 3): 2.4 µM; IC50 [8]: 5.5 µM; IC50 [9]: 1.2 µM; IC50 [10]: 3.6 µM
9 | CCCCCCCCCCCCCCCCCCNC(=O)[C@@H]1CSC(c2ccc(NC(C)=O)cc2)N1.Cl (mixture of isomers) [Compound 18-HCI, (2RS, 4R)-2-(4-Acetylamino-phenyl)-thiazolidine-4-carboxylic acid octadecylamide Hydrochloride] | – | – | – | – | – | – | – | – | 21.1 | 3.1 | 5.6 | 1.3 | 0.55 | 0.94 | Selectivity in PPC-1 cells compared to RH7777 cells [5]: 38 fold; IC50 ([5]; read-out: IC50 in PPC-1 cells): 0.55 µM; IC50 ([8]; Homo sapiens, Caov-3): 4.9 µM; IC50 ([9]; Homo sapiens, OVCAR-3): 2 µM; IC50 ([10]; Homo sapiens, SK-OV-3): 2.6 µM
10 | CCCCCCCCCCCCCCCCCCNC(=O)[C@@H]1CSC(c2cc(OC)c(OC)c(OC)c2)N1 (mixture of isomers) [Compound 17-HCI, (2RS, 4R)-2-(3,4,5-Trimethoxy-phenyl)-thiazolidine-4-carboxylic acid octadecylamide Hydrochloride] | – | 11.4 | 3.9 | 4 | 0.82 | – | 2.4 | – | – | – | – | – | – | – | IC50 ([8]; Homo sapiens, Caov-3): 4.4 µM; IC50 ([9]; Homo sapiens, OVCAR-3): 1.4 µM; IC50 ([10]; Homo sapiens, SK-OV-3): 2.7 µM
11 | CCCCCCCCCCCCCCCCCCNC(=O)[C@@H]1CSC(c2ccccc2)N1C(C)=O (mixture of isomers) [Compound 28, (2RS, 4R)-3-Acetyl-2-phenylthiazolidine-4-carboxylic acid octadecylamide] | 90 | – | – | – | – | – | – | 16.3 | > 20 | ~20 | ~20 | 16.1 | 12.6 | > 20 | –
12 | CCCCCCCCCCCCCCCCCCNC(=O)[C@@H]1CSC(c2ccccc2)N1S(C)(=O)=O (mixture of isomers) [Compound 29, (2RS,4R)-3-Methanesulfonyl-2-phenylthiazolidine-4-carboxylic acid octadecylamide] | 55 | – | – | – | – | – | – | > 20 | > 20 | > 20 | > 20 | > 20 | > 20 | > 20 | –
13 | CCCCCCCCCCCCCCCCCCNC(=O)[C@@H]1CSC(Cc2ccccc2)N1 (mixture of isomers) [Compound 9, (2RS, 4R)-2-Benzylthiazolidine-4-carboxylic acid octadecylamide] | 80 | > 20 | 15.3 | 16.4 | 4.4 | 4 | 11.2 | 18.7 | – | – | – | – | – | – | –
14 | CCCCCCCCCCCCCCCCCCNC(=O)[C@@H]1CSC(C2CCCCC2)N1 (mixture of isomers) [Compound 8, (2RS, 4R)-2-Cyclohexylthiazolidine-4-carboxylic acid octadecylamide] | 60 | > 20 | > 20 | > 20 | 12.8 | 9.3 | > 20 | ~20 | – | – | – | – | – | – | –
